Experiment [1] concerns the target T1, HLA A*0101 (Homo sapiens, UniProt P04439, A114D/A174V/A182V/D101N/D185E/E176A/E190D/L180R/Q94H/R68K/S129P/T187R/V100A/V91M/W191G).
T1 construct: purchased
The experiment is described as follows: ITOPIA peptide binding assay. The note with it: 1.11×10^−4M of peptide. The protocol: (§1) Peptide binding, off-rate and affinity were measured according to the protocols described in the ITOPIA Epitope Discovery System Customer Guide. To conduct the experiments, ninety-six (96) micro-titer plates coated with MHC molecules representing the HLA alleles listed in Table 9 were used to identify candidate peptides. Determinations were performed in duplicate using an ELISA plate reader. The peptide binding assay used measures the ability of individual peptides to bind to the HLA molecules under standardized optimal binding conditions. The assay was performed for all the test peptides across the selected HLA alleles. The test peptides identified as “binders” were characterized further in terms of affinity and dissociation experiments. The off-rate assay used evaluates the dissociation of previously bound peptide at defined time points (expressed as the t1/2 value). The affinity assay used measures the relative binding affinities for the MHC molecules determined by incubating candidate peptides identified in the initial peptide binding assay at increasing concentrations (expressed as quantity of peptide needed to achieve 50% binding or ED50 value).
(§2) The binding of the test peptides (Table 8) to the HLA molecules (Table 9) was performed at a concentration of 1.11×10^−4M of peptide under optimal, standardized test conditions. A control peptide was run in parallel on the same plate and at the same concentration as the test peptides. […] The level of binding is expressed as a percent of positive control peptide binding for each allele.

Experiment [2] concerns the target T2, HLA A*0201 (Homo sapiens, UniProt P04439, D140Y/D185E/D98H/E176V/E277Q/G131W/G231S/I119V/I121R/I166T/I218V/L300P/L318F/N151K/N90K/P208A/P217A/Q86G/Q94H/R138H/R169H/T345S). Put plainly: ITOPIA peptide binding assay. The note with it: 1.11×10^−4M of peptide. The protocol: as §1, §2
Experiment [3] addresses T3, HLA A*0301 (Homo sapiens, UniProt P04439).
T3 construct: purchased
The experiment is described as follows: ITOPIA peptide binding assay. The note with it: 1.11×10^−4M of peptide. The protocol: as §1, §2

In experiment [4] the target is T4, HLA A*1101 (Homo sapiens, UniProt P04439, A114D/D185E/E176A/F33Y/L180Q/S129P/T187R).
T4 construct: purchased
The experiment is described as follows: ITOPIA peptide binding assay. The note with it: 1.11×10^−4M of peptide. As for the experimental part:
as §1, §2

Experiment [5] addresses T5, HLA A*2402 (Homo sapiens, UniProt P04439, D101N/D140Y/D185E/E176V/E190D/F33S/G103R/G107R/I119L/I121M/I306V/K335N/L105A/L180Q/L300P/N151K/N90K/Q86E/Q94H/R106L/R138H/R89G/T104I/T345S/V100E/W191G/Y123F). Put plainly: ITOPIA peptide binding assay. The note with it: 1.11×10^−4M of peptide. The protocol: as §1, §2
Experiment [6] has as its target T6, HLA B*0702 (Homo sapiens, UniProt P01889).
T6 construct: purchased
Put plainly: ITOPIA peptide binding assay. The note with it: 1.11×10^−4M of peptide. The protocol:
as §1, §2

The target in experiment [7] is T7, HLA B*0801 (Homo sapiens, UniProt P01889, A93T/A95T/D138N/E176V/E187T/K202T/Q94N/R180D/S35A/V36M/Y33D/Y91F).
T7 construct: purchased
Put plainly: ITOPIA peptide binding assay. The note with it: 1.11×10^−4M of peptide. The protocol:
as §1, §2

Experiment [8] concerns the target T8, HLA B*1501 (Homo sapiens, UniProt P01889, A329T/A93T/A95T/C349S/D201E/D98Y/E187L/E204Q/E69M/E70A/K202T/N87E/Q94N/R155S/R180W/S121R/S35A/S48A/V306I/V36M/Y140S/Y91S).
T8 construct: purchased
Put plainly: ITOPIA peptide binding assay. The note with it: 1.11×10^−4M of peptide. The protocol: as §1, §2

Experiment [9] deals with T6, HLA B*0702. Put plainly: ITOPIA off-rate assay. Type of experiment: binding. The note with it: 37° C., one-phase exponential decay. The protocol:
as §1
(§3) The peptides initially identified as binders were evaluated for stability based on their ability to remain bound to MHC molecules at 37° C. at time points 0, 0.5, 1, 1.5, 2, 4, 6 and 8 hours. […] The values obtained for each time point (in duplicate) are expressed (Table 11) as a percentage of the positive control. To calculate the t1/2 and goodness-of-fit, as measured by r^2, for each peptide, a one-phase exponential decay curve, with a plateau given equal to 0, was generated using […] PRISM software.

The target of experiment [10] is T7, HLA B*0801. The experiment is described as follows: ITOPIA off-rate assay. The format is binding. The note with it: 37° C., one-phase exponential decay. The protocol:
as §1, §3

The target in experiment [11] is T1, HLA A*0101. The experiment is described as follows: Multi-parametric analysis iScore. Type of experiment: binding. Also on record: scale not given here. The note with it: index integrating t1/2 and ED50. As for the experimental part: (§4) Multi-parametric analysis was performed to integrate the half-life (t½) and ED50 parameters in an index (iScore). The iScore (Table 13) reflects the capability of a peptide to reconstitute with MHC molecules in a stable complex, defining its overall level of binding.

For experiment [12], the target named is T2, HLA A*0201. Put plainly: Multi-parametric analysis iScore. The format is binding. Also on record: scale not given here. The note with it: index integrating t1/2 and ED50. The protocol: as §4
The target in experiment [13] is T3, HLA A*0301. The experiment is described as follows: Multi-parametric analysis iScore. The format is binding. Also on record: scale not given here. The note with it: index integrating t1/2 and ED50. As for the experimental part: as §4
Experiment [14] addresses T4, HLA A*1101. Put plainly: Multi-parametric analysis iScore. The format is binding. Also on record: scale not given here. The note with it: index integrating t1/2 and ED50. The protocol: as §4
Experiment [15] deals with T5, HLA A*2402. Put plainly: Multi-parametric analysis iScore. The format is binding. Also on record: scale not given here. The note with it: index integrating t1/2 and ED50. As for the experimental part:
as §4

In experiment [16] the target is T6, HLA B*0702. Put plainly: Multi-parametric analysis iScore. Details: scale not given here. The note with it: index integrating t1/2 and ED50. Type of experiment: binding. The protocol:
as §4

In experiment [17] the target is T7, HLA B*0801. The experiment is described as follows: Multi-parametric analysis iScore. The note with it: index integrating t1/2 and ED50. Details: scale not given here. Type of experiment: binding. The protocol: as §4
The target in experiment [18] is T8, HLA B*1501. The experiment is described as follows: Multi-parametric analysis iScore. The format is binding. Details: scale not given here. The note with it: index integrating t1/2 and ED50. The protocol:
as §4

The target in experiment [19] is T8, HLA B*1501. The experiment is described as follows: ITOPIA off-rate assay. The format is binding. The note with it: 37° C., one-phase exponential decay. The protocol: as §1, §3
Experiment [20] addresses T5, HLA A*2402. The experiment is described as follows: ITOPIA off-rate assay. The note with it: 37° C., one-phase exponential decay. Type of experiment: binding. As for the experimental part: as §1, §3

With FPRIWLHGL [compound 152], the “level of binding, percent of positive control peptide binding” value on HLA A*0101 [1] is 0% of positive control; on HLA A*0201 [2], 9% of positive control; at HLA A*0301 [3], 0% of positive control; at HLA A*1101 [4], 0% of positive control; at HLA A*2402 [5], 41% of positive control; at HLA B*0702 [6] it was 132% of positive control. In addition, the entries for the “level of binding, percent of positive control peptide binding” value on HLA B*0801 [7] and on HLA B*1501 [8] were 39% of positive control and 3% of positive control, respectively. Besides, the “B*0702 t1/2” value on HLA B*0702 [9] worked out at 1.1 h. For the same sequence, the “B*0801 t1/2” value on HLA B*0801 [10] came out at 1.8 h. Besides, the iScore on HLA A*0101 [11] is given as 0; at HLA A*0201 [12] it was 0; at HLA A*0301 [13], 0; on HLA A*1101 [14] it was 0; on HLA A*2402 [15], 0; on HLA B*0702 [16] it was 0.421. Further, the iScore on HLA B*0801 [17] amounted to 0.189; at HLA B*1501 [18], 0.

On to RGRQKVVSL [compound 68], for which the “level of binding, percent of positive control peptide binding” value at HLA A*0101 [1] is on record as 0% of positive control; on HLA A*0201 [2], 5% of positive control; on HLA A*0301 [3], 0% of positive control; at HLA A*1101 [4] it was 0% of positive control; on HLA A*2402 [5] it was 17% of positive control; on HLA B*0702 [6] it was 96% of positive control. Moreover, the “level of binding, percent of positive control peptide binding” value was 73% of positive control on HLA B*0801 [7] and 55% of positive control at HLA B*1501 [8]. Besides, the “B*0702 t1/2” value on HLA B*0702 [9] was found to be 1.1 h. The “B*0801 t1/2” value at HLA B*0801 [10] turned out to be 1.2 h. The “B*1501 t1/2” value at HLA B*1501 [19] was 3.5 h. For the same sequence, the iScore at HLA A*0101 [11] is given as 0; on HLA A*0201 [12], 0; at HLA A*0301 [13] it was 0; on HLA A*1101 [14], 0; on HLA A*2402 [15], 0; at HLA B*0702 [16], 0.307. The iScore at HLA B*0801 [17] was 0.100; at HLA B*1501 [18], 0.106.

In the case of RGRQKVVSI [compound 153], the “level of binding, percent of positive control peptide binding” value at HLA A*0101 [1] was 0% of positive control; on HLA A*0201 [2], 6% of positive control; on HLA A*0301 [3], 0% of positive control; at HLA A*1101 [4], 6% of positive control; at HLA A*2402 [5], 29% of positive control; on HLA B*0702 [6] it was 88% of positive control. Further, the results for the “level of binding, percent of positive control peptide binding” value on HLA B*0801 [7] and at HLA B*1501 [8] were 71% of positive control and 7% of positive control, respectively. Besides, the “A*2402 t1/2” value on HLA A*2402 [20] was 1.8 h. For the same sequence, the “B*0702 t1/2” value on HLA B*0702 [9] worked out at 1.3 h. For the same sequence, the “B*0801 t1/2” value at HLA B*0801 [10] was determined as 1.2 h. For the same sequence, the iScore at HLA A*0101 [11] is 0; at HLA A*0201 [12], 0; on HLA A*0301 [13], 0; at HLA A*1101 [14], 0; at HLA A*2402 [15] it was 0.050; at HLA B*0702 [16], 0.271. For the same sequence, the iScore at HLA B*0801 [17] is on record as 0.165; on HLA B*1501 [18], 0.

Source of the values: patent US20060160070A1, “Association-based epitome design” (Microsoft Corporation, priority 2004, published 2006).
